Water content data for 1 compound are collected here from US20160039871A1, “NOVEL FORMS OF TELAPREVIR” (SANDOZ AG, priority 2012, published 2016).

A short description of this data set: moisture sorption (Dynamic Vapor Sorption), water content versus relative humidity. The format is physicochemical. On the procedure:
The moisture sorption isotherms were recorded with a SPS-11 moisture sorption analyzer (MD Messtechnik, Ulm, D). […] The equilibrium condition for each step was set to a mass constancy of ±0.005% over 60 min. The temperature was 25±0.1° C.

As for `CCC[C@H](NC(=O)[C@@H]1[C@H]2CCC[C@H]2CN1C(=O)[C@@H](NC(=O)[C@@H](NC(=O)c1cnccn1)C1CCCCC1)C(C)(C)C)C(=O)C(=O)NC1CC1` [Form C, (1S,3aR,6aS)-2-[(2S)-2-[[(2S)-2-Cyclohexyl-2-(pyrazine-2-carbonylamino)acetyl]amino]-3,3-dimethylbutanoyl]-N-[(3S)-1-(cyclopropylamino)-1,2-dioxohexan-3-yl]-3,3a,4,5,6,6a-hexahydro-1H-cyclopenta[c]pyrrole-1-carboxamide], the water content entry was “about 0.5 moles of water” (relative humidity of about 40%) and “about 0.9 moles of water” (relative humidity of about 70%-80%).
